The compounds below were run on beta-TC6 cells (assay: Insulin HTRF assay (relative activity Ar) in beta-TC6 cells). Conditions: Mus musculus, Beta-TC6, 4 h, insulin HTRF, supernatant of beta-TC6 cells, incubation with test compound at 37°C for 2, 3, 4h; read-out: Ar (relative activity).
Assay type: cell-based, mouse
Text: For further screening of compounds derived from compounds described above for their ability to regulate insulin release an insulin HTRF® (Homogeneous Time-Resolved Fluorescence; Cisbio International, France) was used. This assay is based on two antibodies against insulin binding to different epitopes of insulin. One of these antibodies is coupled to Europium (Ab-Eu-Cryptate) and the other one to the fluorophore XL665 (Ab-XL665). If the insulin is secreted into the supernatant of cell culture, both antibodies can bind to insulin and come therefore into close proximity, which allows upon excitation that energy transfer between (FRET) the long-life fluorescent donor Europium (cryptate) and the acceptors XL665. FRET increases proportionally with insulin concentration.
The automated assay protocol is as follows: • On day 1, 15k beta-TC6 cells per well were seeded for 24 or 48 h in 50 µL complete medium. On day 2 or respective on day 3, the medium is removed and cells are washed with 60 µL 1xPBS and 20 µL induction buffer is added using BioTek washer. Subsequently, 10 µL Sunitininb (5 -µM f.c.) or the test compound in induction buffer; 0.5% f.c. DMSO (CyBi-well) is transferred to the cells. The cells are then incubated at 37°C for 2, 3, 4h.
First 10 µL supernatant is transferred from the cell plates in HTRF plates (CyBi-well). 10 µL of 0, 1, 2, and 4 ng/ml insulin standard controls in assay medium is used as a control. To each well 10 µL of combined 1:25 Ab-XL665 (Acc) and 1:20 Ab-Eu-Cryptate (WellMate) are added and incubated for 120 min at RT in the dark. Finally HTRF is measured on ViewLux ultra high throughput microplate imager (PerkinElmer).
The evaluation software DataFactoty derives relative activities Ar according to the following equation: Ar = (V-R(0%control))/(R(100%control) -R0%control)) × 100 [formula]
The activity of the compounds was classified according to their Ar (relative activity) into the following ranges: […]

First: CC(=O)Nc1cccc(Nc2cc3[nH]c(-c4ccc(C(=O)N(C)C)cc4)cc3cn2)c1 [Compound 41, 4-[6-(3-acetamidoanilino)-1H-pyrrolo[3,2-c]pyridin-2-yl]-N,N-dimethyl-benzamide]
Second: COc1cccc(Nc2cc3[nH]c(-c4ccc(C(=O)N(C)C)cc4)cc3cn2)c1 [Compound 19, 4-[6-(3-methoxyanilino)-1H-pyrrolo[3,2-c]pyridin-2-yl]-N,N-dimethyl-benzamide]
The Emax of the first is higher: > 100% for the first, 50 to 100% for the second.

Cc1cccc(CNc2nc3cnc(Nc4cccc(S(C)(=O)=O)c4)cc3n2C)c1 [Compound 584, 1-methyl-N6-(3-methylsulfonylphenyl)-N2-(m-tolylmethyl)imidazo[4,5-c]pyridine-2,6-diamine] and CC(=O)c1cccc(Nc2cc3c(cn2)nc(C)n3C)c1 [Compound 698, 1-[3-[(1,2-dimethylimidazo[4,5-c]pyridin-6-yl)amino]phenyl]ethanone] fall in the same range of Emax: 30 to 50% for the first, 30 to 50% for the second.

COc1ccc(Cn2cnc3cnc(-c4cccnc4)cc32)cc1OC [Compound 737, 1-[(3,4-dimethoxyphenyl)methyl]-6-(3-pyridyl)imidazo[4,5-c]pyridine] and CNc1nc2cnc(Nc3ccc(F)cc3)cc2n1Cc1cccnc1 [Compound 565, N6-(4-fluorophenyl)-N2-methyl-1-(3-pyridylmethyl)imidazo[4,5-c]pyridine-2,6-diamine] fall in the same range of Emax: 50 to 100% for the first, 50 to 100% for the second.

Cn1cc(-c2cc3cnc(Nc4ccc(C#N)cc4)cc3n2C)cn1 [Compound 142, 4-[[1-methyl-2-(1-methylpyrazol-4-yl)pyrrolo[3,2-c]pyridin-6-yl]amino]benzonitrile] and Cn1cc(-c2cc3cnc(Nc4ccc(F)cc4)cc3n2C)cn1 [Compound 138, N-(4-fluorophenyl)-1-methyl-2-(1-methylpyrazol-4-yl)pyrrolo[3,2-c]pyridin-6-amine] fall in the same range of Emax: 50 to 100% for the first, 50 to 100% for the second.

Cn1cncc1-c1cc2cnc(Nc3cccc(F)c3)cc2[nH]1 [Compound 108, N-(3-fluorophenyl)-2-(3-methylimidazol-4-yl)-1H-pyrrolo[3,2-c]pyridin-6-amine] and Cn1cncc1-c1cc2cnc(Nc3ccc(F)cc3)cc2[nH]1 [Compound 106, N-(4-fluorophenyl)-2-(3-methylimidazol-4-yl)-1H-pyrrolo[3,2-c]pyridin-6-amine] fall in the same range of Emax: 50 to 100% for the first, 50 to 100% for the second.

First: CC(=O)Nc1ccc(-c2cc3c(cn2)ncn3-c2cccc(F)c2)cc1 [Compound 761, N-[4-[1-(3-fluorophenyl)imidazo[4,5-c]pyridin-6-yl]phenyl]acetamide]
Second: CC(=O)Nc1ccc(Nc2cc3[nH]c(-c4cnn(C)c4)cc3cn2)cc1 [Compound 121, N-[4-[[2-(1-methylpyrazol-4-yl)-1H-pyrrolo[3,2-c]pyridin-6-yl]amino]phenyl]acetamide]
The Emax of the first is lower: 0 to 30% for the first, > 100% for the second.

N#Cc1ccc(Nc2cc3[nH]c(-c4ccccn4)cc3cn2)cc1 [Compound 68, 4-[[2-(2-pyridyl)-1H-pyrrolo[3,2-c]pyridin-6-yl]amino]benzonitrile] and CN(C)C(=O)c1ccc(Nc2cc3[nH]c(-c4ccccc4)cc3cn2)cc1 [Compound 182, N,N-dimethyl-4-[(2-phenyl-1H-pyrrolo[3,2-c]pyridin-6-yl)amino]benzamide] fall in the same range of Emax: 50 to 100% for the first, 50 to 100% for the second.

COCCNc1nc2cnc(-c3ccccc3C)cc2n1C [Compound 770, N-(2-methoxyethyl)-1-methyl-6-(o-tolyl)imidazo[4,5-c]pyridin-2-amine] and COCCNc1nc2cnc(-c3ccc(OC)nc3)cc2n1C [Compound 751, N-(2-methoxyethyl)-6-(6-methoxy-3-pyridyl)-1-methyl-imidazo[4,5-c]pyridin-2-amine] fall in the same range of Emax: 0 to 30% for the first, 0 to 30% for the second.

CNc1nc2cnc(Nc3ccc4c(c3)OCCO4)cc2n1Cc1ccccc1 [Compound 528, 1-benzyl-N6-(2,3-dihydro-1,4-benzodioxin-6-yl)-N2-methyl-imidazo[4,5-c]pyridine-2,6-diamine] and CNc1nc2cnc(Nc3ccc4c(c3)OCCO4)cc2n1-c1cccc(C(F)(F)F)c1 [Compound 544, N6-(2,3-dihydro-1,4-benzodioxin-6-yl)-N2-methyl-1-[3-(trifluoromethyl)phenyl]imidazo[4,5-c]pyridine-2,6-diamine] fall in the same range of Emax: 50 to 100% for the first, 50 to 100% for the second.

First: COCCNc1nc2cnc(-c3cccc(OC(F)(F)F)c3)cc2n1C [Compound 855, N-(2-methoxyethyl)-1-methyl-6-[3-(trifluoromethoxy)phenyl]imidazo[4,5-c]pyridin-2-amine]
Second: COc1ccc(OC)c(CCNc2nc3cnc(-c4ccc5c(c4)OCO5)cc3n2C)c1 [Compound 816, 6-(1,3-benzodioxol-5-yl)-N-[2-(2,5-dimethoxyphenyl)ethyl]-1-methyl-imidazo[4,5-c]pyridin-2-amine]
The Emax of the first is higher: 30 to 50% for the first, 0 to 30% for the second.

First: COc1cc(-n2cnc3cnc(Nc4cccc(C(F)(F)F)c4)cc32)cc(OC)c1OC [Compound 690, N-[3-(trifluoromethyl)phenyl]-1-(3,4,5-trimethoxyphenyl)imidazo[4,5-c]pyridin-6-amine]
Second: COc1ccc(Nc2cc3c(cn2)nc(-c2ccc(OC)c(OC)c2)n3C)c(C)c1 [Compound 720, 2-(3,4-dimethoxyphenyl)-N-(4-methoxy-2-methyl-phenyl)-1-methyl-imidazo[4,5-c]pyridin-6-amine]
The Emax of the first is higher: > 100% for the first, 30 to 50% for the second.

First: CN1CCN(c2ccc(Nc3nccc4c3cc(-c3cccc(F)c3)n4C)cc2)CC1 [Compound 209, 2-(3-fluorophenyl)-1-methyl-N-[4-(4-methylpiperazin-1-yl)phenyl]pyrrolo[3,2-c]pyridin-4-amine]
Second: COc1ccc(Nc2nccc3c2cc(-c2ccsc2)n3C)cc1 [Compound 279, N-(4-methoxyphenyl)-1-methyl-2-(3-thienyl)pyrrolo[3,2-c]pyridin-4-amine]
The Emax of the first is higher: 50 to 100% for the first, 30 to 50% for the second.

First: CN(C)c1ccc(-c2cc3c(Nc4ccncn4)nccc3n2C)cc1 [Compound 229, 2-(4-dimethylaminophenyl)-1-methyl-N-pyrimidin-4-yl-pyrrolo[3,2-c]pyridin-4-amine]
Second: CC(C)c1cccc(Nc2nccc3c2cc(-c2ccc(C(=O)N(C)C)cc2)n3C)c1 [Compound 224, 4-[4-(3-isopropylanilino)-1-methyl-pyrrolo[3,2-c]pyridin-2-yl]-N,N-dimethyl-benzamide]
The Emax of the first is higher: > 100% for the first, 0 to 30% for the second.

COc1ccc(Nc2cc3c(cn2)cc(-c2ccc(C(=O)N(C)C)cc2)n3C)cc1OC [Compound 46, 4-[6-(3,4-dimethoxyanilino)-1-methyl-pyrrolo[3,2-c]pyridin-2-yl]-N,N-dimethyl-benzamide] and CN(C)C(=O)c1ccc(-c2cc3cnc(Nc4ccccc4)cc3n2C)cc1 [Compound 48, 4-(6-anilino-1-methyl-pyrrolo[3,2-c]pyridin-2-yl)-N,N-dimethyl-benzamide] fall in the same range of Emax: 50 to 100% for the first, 50 to 100% for the second.

COc1ccc(Nc2nccc3[nH]c(-c4ccccc4Cl)nc23)cc1OC [Compound 458, 2-(2-chlorophenyl)-N-(3,4-dimethoxyphenyl)-1H-imidazo[4,5-c]pyridin-4-amine] and COc1cccc(-c2nc3c(Nc4cccc(O)c4)nccc3[nH]2)c1F [Compound 478, 3-[[2-(2-fluoro-3-methoxy-phenyl)-1H-imidazo[4,5-c]pyridin-4-yl]amino]phenol] fall in the same range of Emax: 50 to 100% for the first, 50 to 100% for the second.

Compared with CN(C)C(=O)c1ccc(-c2cc3c(N4CCOCC4)nccc3n2C)cc1 [Compound 188, N,N-dimethyl-4-(1-methyl-4-morpholino-pyrrolo[3,2-c]pyridin-2-yl)benzamide], Cn1c(-c2cccnc2)cc2cnc(N3CCOCC3)cc21 [Compound 94, 4-[1-methyl-2-(3-pyridyl)pyrrolo[3,2-c]pyridin-6-yl]morpholine] is higher in Emax: 0 to 30% for the first, 30 to 50% for the second.

Compared with CC(=O)N(C)c1cccc(-c2cc3cnc(Nc4ccccn4)cc3n2C)c1 [Compound 167, N-methyl-N-[3-[1-methyl-6-(2-pyridylamino)pyrrolo[3,2-c]pyridin-2-yl]phenyl]acetamide], COc1ccc(Nc2cc3[nH]c(-c4ccc(C(=O)N(C)C)cc4)cc3cn2)c(OC)c1 [Compound 20, 4-[6-(2,4-dimethoxyanilino)-1H-pyrrolo[3,2-c]pyridin-2-yl]-N,N-dimethyl-benzamide] is higher in Emax: 30 to 50% for the first, 50 to 100% for the second.

In the case of COc1cccc(-c2nc3c(N4CCOCC4)nccc3[nH]2)c1 [Compound 375, 4-[2-(3-methoxyphenyl)-1H-imidazo[4,5-c]pyridin-4-yl]morpholine], the Emax is reported as 30 to 50%.

Same assay, conditions: Mus musculus, Beta-TC6, 4 h, read-out: Ar (relative activity)

In the case of CCN(CC)CCNC(=O)c1ccc(Nc2nccc3[nH]c(-c4cccc(OC)c4F)nc23)cc1 [Compound 473, N-(2-diethylaminoethyl)-4-[[2-(2-fluoro-3-methoxy-phenyl)-1H-imidazo[4,5-c]pyridin-4-yl]amino]benzamide], the Emax is reported as > 100%.

Same assay, conditions: insulin HTRF, supernatant of beta-TC6 cells, incubation with test compound at 37°C for 2, 3, 4h

For Sc1nc2cnccc2n1-c1ccccc1 [Compound 744, 1-phenylimidazo[4,5-c]pyridine-2-thiol], the “Ar (relative activity)” value was “++ (30 % ≤ Ar < 50 %)”.

— EP2818472A1, “Imidazo[4,5-c]pyridine and pyrrolo[3,2-c]pyridine compounds as G-protein-coupled receptor kinase 5 (GRK5) modulators” (Max-Planck-Gesellschaft zur Förderung der Wissenschaften …, priority 2013, dated 2014)
